From ChEMBL document CHEMBL5291721, “A preclinical secondary pharmacology resource illuminates target-adverse drug reaction associations of marketed drugs” (Nat Commun, 2023)

What was measured:
Adenosine receptor A3 = target: T1, Adenosine receptor A3 (Homo sapiens, UniProt P0DMS8)
T1 sequence (P0DMS8 whole entry): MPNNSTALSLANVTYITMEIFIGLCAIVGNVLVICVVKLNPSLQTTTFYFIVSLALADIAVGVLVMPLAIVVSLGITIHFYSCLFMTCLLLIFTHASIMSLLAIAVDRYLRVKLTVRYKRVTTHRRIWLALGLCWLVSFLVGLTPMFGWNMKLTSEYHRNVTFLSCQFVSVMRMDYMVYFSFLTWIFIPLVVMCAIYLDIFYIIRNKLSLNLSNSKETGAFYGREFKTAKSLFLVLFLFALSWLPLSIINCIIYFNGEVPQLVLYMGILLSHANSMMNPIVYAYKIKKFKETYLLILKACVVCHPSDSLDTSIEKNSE

[1] = target: T2, Alpha-1A adrenergic receptor (Homo sapiens, UniProt P35348); format: functional, cell-based
T2 sequence (P35348 whole entry): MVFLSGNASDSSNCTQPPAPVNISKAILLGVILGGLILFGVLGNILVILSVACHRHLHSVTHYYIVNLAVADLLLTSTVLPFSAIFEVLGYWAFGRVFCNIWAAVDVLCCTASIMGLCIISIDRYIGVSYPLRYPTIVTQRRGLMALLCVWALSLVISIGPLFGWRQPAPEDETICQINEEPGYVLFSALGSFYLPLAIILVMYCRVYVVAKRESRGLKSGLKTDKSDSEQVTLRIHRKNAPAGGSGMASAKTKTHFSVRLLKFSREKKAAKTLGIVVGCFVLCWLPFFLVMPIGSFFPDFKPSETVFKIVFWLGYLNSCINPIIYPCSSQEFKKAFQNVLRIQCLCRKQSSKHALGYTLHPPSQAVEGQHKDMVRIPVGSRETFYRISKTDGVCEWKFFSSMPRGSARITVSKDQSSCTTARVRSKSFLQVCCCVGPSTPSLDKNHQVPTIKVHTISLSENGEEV

[2] = target: T2, Alpha-1A adrenergic receptor; format: functional, cell-based; remark: listed apart in the source
Estrogen receptor = target: T3, Estrogen receptor (Homo sapiens, UniProt P03372)
T3 sequence (P03372 whole entry): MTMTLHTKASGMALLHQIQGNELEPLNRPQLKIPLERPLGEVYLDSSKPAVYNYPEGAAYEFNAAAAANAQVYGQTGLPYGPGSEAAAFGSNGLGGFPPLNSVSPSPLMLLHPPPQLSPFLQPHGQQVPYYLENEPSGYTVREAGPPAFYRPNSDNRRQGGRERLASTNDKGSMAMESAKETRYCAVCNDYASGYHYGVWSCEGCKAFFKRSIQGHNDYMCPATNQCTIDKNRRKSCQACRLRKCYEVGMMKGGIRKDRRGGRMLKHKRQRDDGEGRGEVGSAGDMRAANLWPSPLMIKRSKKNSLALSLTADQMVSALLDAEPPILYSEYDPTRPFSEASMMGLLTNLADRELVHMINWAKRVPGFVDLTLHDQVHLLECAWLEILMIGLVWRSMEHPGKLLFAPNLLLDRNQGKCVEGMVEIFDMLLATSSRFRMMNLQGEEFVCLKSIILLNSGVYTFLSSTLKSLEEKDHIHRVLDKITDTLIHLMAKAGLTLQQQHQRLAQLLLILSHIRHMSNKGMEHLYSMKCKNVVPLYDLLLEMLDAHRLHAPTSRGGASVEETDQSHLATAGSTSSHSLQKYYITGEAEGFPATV

Histamine H3 receptor = Histamine H3 receptor (Homo sapiens, UniProt Q9Y5N1)
Histamine H3 receptor, sequence (Q9Y5N1 whole entry): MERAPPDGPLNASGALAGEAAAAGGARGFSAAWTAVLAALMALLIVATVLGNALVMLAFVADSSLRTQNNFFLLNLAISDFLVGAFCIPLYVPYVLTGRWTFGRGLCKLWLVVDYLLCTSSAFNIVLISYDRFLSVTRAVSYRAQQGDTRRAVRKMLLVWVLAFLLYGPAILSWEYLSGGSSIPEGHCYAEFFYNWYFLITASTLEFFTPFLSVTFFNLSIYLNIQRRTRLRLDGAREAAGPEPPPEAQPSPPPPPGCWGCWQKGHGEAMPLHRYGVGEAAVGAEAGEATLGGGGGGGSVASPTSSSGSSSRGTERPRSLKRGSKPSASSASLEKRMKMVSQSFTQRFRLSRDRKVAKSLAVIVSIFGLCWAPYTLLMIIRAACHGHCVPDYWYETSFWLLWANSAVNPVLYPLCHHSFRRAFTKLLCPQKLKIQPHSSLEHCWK

[3] = target: 5-hydroxytryptamine receptor 2B (Homo sapiens, UniProt P41595); format: functional, cell-based
5-hydroxytryptamine receptor 2B, sequence (P41595 whole entry): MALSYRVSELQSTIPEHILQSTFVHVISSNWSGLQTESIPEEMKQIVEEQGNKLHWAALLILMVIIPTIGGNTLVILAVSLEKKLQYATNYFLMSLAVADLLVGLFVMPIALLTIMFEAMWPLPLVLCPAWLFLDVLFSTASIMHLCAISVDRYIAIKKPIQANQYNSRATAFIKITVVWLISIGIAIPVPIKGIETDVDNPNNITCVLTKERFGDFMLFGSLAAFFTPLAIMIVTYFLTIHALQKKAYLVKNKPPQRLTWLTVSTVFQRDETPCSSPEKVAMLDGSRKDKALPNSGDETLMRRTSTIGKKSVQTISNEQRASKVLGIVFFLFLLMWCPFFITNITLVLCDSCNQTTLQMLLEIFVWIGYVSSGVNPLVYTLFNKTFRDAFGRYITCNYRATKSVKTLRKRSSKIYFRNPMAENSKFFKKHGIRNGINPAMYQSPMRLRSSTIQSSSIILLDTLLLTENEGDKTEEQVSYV

Mu-type opioid receptor = Mu-type opioid receptor (Homo sapiens, UniProt P35372)
Mu-type opioid receptor, sequence (P35372 whole entry): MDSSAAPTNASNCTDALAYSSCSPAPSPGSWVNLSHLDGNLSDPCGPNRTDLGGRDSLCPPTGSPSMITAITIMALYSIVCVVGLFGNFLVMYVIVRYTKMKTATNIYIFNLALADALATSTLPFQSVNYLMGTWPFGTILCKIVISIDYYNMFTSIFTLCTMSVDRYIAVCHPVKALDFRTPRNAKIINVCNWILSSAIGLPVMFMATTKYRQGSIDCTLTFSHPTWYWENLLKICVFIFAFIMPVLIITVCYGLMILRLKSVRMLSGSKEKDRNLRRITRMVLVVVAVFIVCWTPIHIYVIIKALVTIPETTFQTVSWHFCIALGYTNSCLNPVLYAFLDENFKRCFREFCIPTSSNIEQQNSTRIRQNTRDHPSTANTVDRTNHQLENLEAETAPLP

Progesterone receptor = target: T4, Progesterone receptor (Homo sapiens, UniProt P06401)
T4 sequence (P06401 whole entry): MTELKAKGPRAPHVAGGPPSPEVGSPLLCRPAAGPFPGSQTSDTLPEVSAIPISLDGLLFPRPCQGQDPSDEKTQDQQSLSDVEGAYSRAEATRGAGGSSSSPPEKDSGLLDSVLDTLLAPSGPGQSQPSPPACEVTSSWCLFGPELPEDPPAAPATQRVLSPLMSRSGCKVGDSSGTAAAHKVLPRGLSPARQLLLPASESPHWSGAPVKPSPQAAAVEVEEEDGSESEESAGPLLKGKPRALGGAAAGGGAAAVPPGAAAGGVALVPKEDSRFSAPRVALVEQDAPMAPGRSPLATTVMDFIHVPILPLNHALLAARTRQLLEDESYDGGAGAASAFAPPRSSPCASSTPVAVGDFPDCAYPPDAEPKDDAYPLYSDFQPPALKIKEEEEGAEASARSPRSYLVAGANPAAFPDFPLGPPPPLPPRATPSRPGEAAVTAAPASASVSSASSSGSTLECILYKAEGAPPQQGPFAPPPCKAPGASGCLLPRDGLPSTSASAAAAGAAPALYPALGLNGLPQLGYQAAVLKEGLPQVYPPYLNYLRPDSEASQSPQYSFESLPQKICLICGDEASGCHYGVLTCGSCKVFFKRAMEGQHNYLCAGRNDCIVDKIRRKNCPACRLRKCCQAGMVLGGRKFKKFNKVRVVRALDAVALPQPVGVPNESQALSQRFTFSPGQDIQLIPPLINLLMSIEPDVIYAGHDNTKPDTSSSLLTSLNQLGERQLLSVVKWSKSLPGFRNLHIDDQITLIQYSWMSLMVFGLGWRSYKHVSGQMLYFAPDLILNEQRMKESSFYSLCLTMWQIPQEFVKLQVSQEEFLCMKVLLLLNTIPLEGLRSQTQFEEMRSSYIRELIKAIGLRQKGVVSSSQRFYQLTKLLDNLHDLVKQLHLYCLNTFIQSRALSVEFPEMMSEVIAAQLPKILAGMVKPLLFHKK

[4] = target: Sodium-dependent dopamine transporter (Homo sapiens, UniProt Q01959)
Sodium-dependent dopamine transporter, sequence (Q01959 whole entry): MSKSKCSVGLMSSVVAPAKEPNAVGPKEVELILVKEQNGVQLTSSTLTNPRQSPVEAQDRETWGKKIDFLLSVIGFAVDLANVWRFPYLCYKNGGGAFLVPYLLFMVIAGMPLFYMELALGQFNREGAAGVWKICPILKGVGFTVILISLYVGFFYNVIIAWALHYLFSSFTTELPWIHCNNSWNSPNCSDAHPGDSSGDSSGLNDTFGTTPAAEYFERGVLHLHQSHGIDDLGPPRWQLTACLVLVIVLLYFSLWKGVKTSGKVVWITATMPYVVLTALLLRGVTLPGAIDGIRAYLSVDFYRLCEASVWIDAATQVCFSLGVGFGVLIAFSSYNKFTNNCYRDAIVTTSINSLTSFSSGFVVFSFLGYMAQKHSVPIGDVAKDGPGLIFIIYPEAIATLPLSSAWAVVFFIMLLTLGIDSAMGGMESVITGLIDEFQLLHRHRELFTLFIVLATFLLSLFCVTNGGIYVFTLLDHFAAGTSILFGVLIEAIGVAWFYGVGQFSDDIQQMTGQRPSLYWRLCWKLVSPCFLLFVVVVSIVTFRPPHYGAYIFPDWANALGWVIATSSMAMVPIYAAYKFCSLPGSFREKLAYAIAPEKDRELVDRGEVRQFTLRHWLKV

Thromboxane A2 receptor = target: T5, Thromboxane A2 receptor (Homo sapiens, UniProt P21731); format: functional, cell-based
T5 sequence (P21731 whole entry): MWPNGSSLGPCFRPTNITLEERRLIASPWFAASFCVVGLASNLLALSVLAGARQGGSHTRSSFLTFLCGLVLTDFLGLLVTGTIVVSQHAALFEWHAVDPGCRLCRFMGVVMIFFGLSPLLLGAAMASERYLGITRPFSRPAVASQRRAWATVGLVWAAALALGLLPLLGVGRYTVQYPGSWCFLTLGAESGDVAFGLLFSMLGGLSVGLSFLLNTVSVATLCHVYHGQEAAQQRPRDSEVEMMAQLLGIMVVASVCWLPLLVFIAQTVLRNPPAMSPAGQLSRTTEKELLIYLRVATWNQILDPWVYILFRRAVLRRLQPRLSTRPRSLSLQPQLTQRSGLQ
Also: assay procedure not described here.

Row | Structure (SMILES) | AC50 (Adenosine receptor A3) | AC50 [1] | AC50 [2] | AC50 (Estrogen receptor) | AC50 (Histamine H3 receptor) | AC50 [3] | AC50 (Mu-type opioid receptor) | AC50 (Progesterone receptor) | AC50 [4] | AC50 (Thromboxane A2 receptor)
1 | CC(C)Cc1ccc(C(C)C(=O)OCc2ccccn2)cc1 (configuration not stated) [IBUPROFEN PICONOL] | 15.8 µM | > 30 µM | > 30 µM | > 30 µM | > 30 µM | > 30 µM | > 30 µM | 19.1 µM | > 30 µM | > 30 µM
2 | CN1CCc2c(c3ccccc3n2Cc2ccccc2)C1 [MEBHYDROLIN] | > 30 µM | > 30 µM | 1.07 µM | > 30 µM | > 30 µM | > 30 µM | 18.7 µM | > 30 µM | 0.334 µM | > 30 µM
3 | CCOc1ccc(Cc2nccc3cc(OCC)c(OCC)cc23)cc1OCC [ETHAVERINE] | 3.11 µM | > 30 µM | 9.55 µM | > 30 µM | > 30 µM | > 30 µM | > 30 µM | > 30 µM | > 30 µM | 14.1 µM
4 | CC(=O)OC1CN2CCC1CC2 (configuration not stated) [ACECLIDINE] |  |  |  | > 30 µM | > 30 µM | > 30 µM | > 30 µM | > 30 µM | > 30 µM | > 30 µM
5 | OCc1ccccc1 [BENZYL ALCOHOL] | > 30 µM | > 30 µM | > 30 µM | > 30 µM | > 30 µM | > 30 µM | > 30 µM | > 30 µM | > 30 µM | > 30 µM
6 | CC(NCCC(c1ccccc1)c1ccccc1)c1ccccc1 (configuration not stated) [FENDILINE] | 26.8 µM | 25.8 µM |  | > 30 µM | > 30 µM | > 30 µM | 0.721 µM | > 30 µM | 3.48 µM | 
7 | CC(C)(C)NCC(O)COc1ccccc1C#N (configuration not stated) [BUNITROLOL] |  | > 30 µM | > 30 µM | > 30 µM | > 30 µM | > 30 µM | > 30 µM | > 30 µM | > 30 µM | > 30 µM
8 | COc1ccc(C(=O)c2ccccc2)c(O)c1 [OXYBENZONE] |  | > 30 µM | > 10 µM | > 30 µM | > 30 µM | > 30 µM | > 30 µM | 25.7 µM | 16.5 µM | > 10 µM
9 | CC(C)N1CCN(c2ccc(OCC3COC(Cn4cncn4)(c4ccc(Cl)cc4Cl)O3)cc2)CC1 (configuration not stated) [TERCONAZOLE] | > 30 µM | > 30 µM | 16 µM | > 30 µM | 0.096 µM | > 30 µM | > 30 µM | 18.7 µM | 7.14 µM | 
